For assay [1], the target named is T1, HiBit-BRM fusion protein (Homo sapiens, UniProt P51531).
T1 construct: expressed in transfected cells
Nature of the assay: HiBiT-BRM cell-based degradation assay (Nano-Glo HiBiT Lytic Detection, 24 h). The settings on record: HeLa cell line expressing HiBiT-BRM; for DC50: read-out: BRM HiBit Degradation IC50. The essentials: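 HeLa cells stably expressing HiBiT-BRM were dosed with compounds (10-point 3-fold dilutions, 30 μM final top dose, duplicate) for 24 h. HiBiT signal was read by lytic LgBiT complementation luminescence. Percent degradation was normalised to DMSO (high control) and 2 μM of a reference BRM/BRG1 degrader (low control).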

For assay [2], the target named is T2, HiBit-BRG1 fusion protein (Homo sapiens, UniProt P51532).
T2 construct: expressed in transfected cells
Nature of the assay: HiBiT-BRG1 cell-based degradation assay (Nano-Glo HiBiT Lytic Detection, 24 h). As to conditions: HeLa cell line expressing HiBit-BRG1 and LgBit; for Dmax: read-out: BRG1 HiBit Degradation Maximum (%); for DC50: read-out: BRMG1 HiBit Degradation IC50. The essentials:
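HeLa cells stably expressing HiBiT-BRG1 plus LgBit, 5000/well, treated 24 h, then lysed with Nano-Glo HiBiT lytic reagent and luminescence read. % degradation normalised between DMSO (high control) and 2 μM reference BRM/BRG1 degrader (low control).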

Here are results for ten molecules from patent publication US20240024488A1, “COMPOUNDS AND USES THEREOF” (Foghorn Therapeutics Inc., priority 2020, published 2024).

A value given as a limit tells only on which side of the number the result lay.

T2 sequence (P51532 whole entry, the tested form may be a part): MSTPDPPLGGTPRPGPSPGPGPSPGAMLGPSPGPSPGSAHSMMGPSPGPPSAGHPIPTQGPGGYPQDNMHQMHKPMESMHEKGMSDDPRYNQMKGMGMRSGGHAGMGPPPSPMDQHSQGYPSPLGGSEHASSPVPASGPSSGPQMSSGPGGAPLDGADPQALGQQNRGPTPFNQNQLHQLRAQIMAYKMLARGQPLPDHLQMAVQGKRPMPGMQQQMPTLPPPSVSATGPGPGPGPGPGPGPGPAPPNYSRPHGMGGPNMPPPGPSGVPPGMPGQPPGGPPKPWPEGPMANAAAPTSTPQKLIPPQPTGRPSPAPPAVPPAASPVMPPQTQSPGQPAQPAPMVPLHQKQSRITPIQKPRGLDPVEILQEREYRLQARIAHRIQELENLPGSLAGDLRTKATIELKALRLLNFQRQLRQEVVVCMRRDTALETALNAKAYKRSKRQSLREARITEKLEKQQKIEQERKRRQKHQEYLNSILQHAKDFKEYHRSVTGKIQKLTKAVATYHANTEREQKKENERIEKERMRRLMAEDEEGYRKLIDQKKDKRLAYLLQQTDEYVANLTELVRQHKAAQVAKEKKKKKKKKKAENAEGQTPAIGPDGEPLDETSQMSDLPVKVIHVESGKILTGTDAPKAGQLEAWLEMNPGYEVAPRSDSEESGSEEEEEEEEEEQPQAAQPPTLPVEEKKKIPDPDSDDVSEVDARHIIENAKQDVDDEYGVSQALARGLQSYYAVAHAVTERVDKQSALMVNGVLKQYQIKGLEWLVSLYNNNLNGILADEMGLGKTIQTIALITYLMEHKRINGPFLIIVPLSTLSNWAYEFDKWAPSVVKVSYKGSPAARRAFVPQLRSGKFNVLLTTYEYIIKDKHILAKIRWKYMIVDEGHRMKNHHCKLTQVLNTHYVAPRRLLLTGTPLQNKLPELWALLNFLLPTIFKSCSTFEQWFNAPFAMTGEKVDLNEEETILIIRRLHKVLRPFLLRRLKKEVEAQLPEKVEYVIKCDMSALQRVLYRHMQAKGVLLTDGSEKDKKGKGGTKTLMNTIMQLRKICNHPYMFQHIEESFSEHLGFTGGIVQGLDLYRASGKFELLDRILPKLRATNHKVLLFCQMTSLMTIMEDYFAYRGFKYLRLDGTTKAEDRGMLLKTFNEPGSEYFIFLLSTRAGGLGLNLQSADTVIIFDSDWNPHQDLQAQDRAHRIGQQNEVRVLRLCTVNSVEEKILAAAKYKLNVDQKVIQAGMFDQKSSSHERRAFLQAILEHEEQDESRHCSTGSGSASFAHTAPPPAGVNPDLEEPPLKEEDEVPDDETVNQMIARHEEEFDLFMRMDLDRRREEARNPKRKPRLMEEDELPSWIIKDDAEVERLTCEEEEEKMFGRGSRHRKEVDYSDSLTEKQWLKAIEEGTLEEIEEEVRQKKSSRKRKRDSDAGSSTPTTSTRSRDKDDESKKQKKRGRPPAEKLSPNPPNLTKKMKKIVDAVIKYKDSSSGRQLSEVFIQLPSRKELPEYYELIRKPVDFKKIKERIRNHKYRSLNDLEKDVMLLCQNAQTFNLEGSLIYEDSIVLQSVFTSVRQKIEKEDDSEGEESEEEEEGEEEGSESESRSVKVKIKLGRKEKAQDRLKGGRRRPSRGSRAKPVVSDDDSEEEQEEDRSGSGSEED
T1 sequence (P51531 whole entry, the tested form may be a part): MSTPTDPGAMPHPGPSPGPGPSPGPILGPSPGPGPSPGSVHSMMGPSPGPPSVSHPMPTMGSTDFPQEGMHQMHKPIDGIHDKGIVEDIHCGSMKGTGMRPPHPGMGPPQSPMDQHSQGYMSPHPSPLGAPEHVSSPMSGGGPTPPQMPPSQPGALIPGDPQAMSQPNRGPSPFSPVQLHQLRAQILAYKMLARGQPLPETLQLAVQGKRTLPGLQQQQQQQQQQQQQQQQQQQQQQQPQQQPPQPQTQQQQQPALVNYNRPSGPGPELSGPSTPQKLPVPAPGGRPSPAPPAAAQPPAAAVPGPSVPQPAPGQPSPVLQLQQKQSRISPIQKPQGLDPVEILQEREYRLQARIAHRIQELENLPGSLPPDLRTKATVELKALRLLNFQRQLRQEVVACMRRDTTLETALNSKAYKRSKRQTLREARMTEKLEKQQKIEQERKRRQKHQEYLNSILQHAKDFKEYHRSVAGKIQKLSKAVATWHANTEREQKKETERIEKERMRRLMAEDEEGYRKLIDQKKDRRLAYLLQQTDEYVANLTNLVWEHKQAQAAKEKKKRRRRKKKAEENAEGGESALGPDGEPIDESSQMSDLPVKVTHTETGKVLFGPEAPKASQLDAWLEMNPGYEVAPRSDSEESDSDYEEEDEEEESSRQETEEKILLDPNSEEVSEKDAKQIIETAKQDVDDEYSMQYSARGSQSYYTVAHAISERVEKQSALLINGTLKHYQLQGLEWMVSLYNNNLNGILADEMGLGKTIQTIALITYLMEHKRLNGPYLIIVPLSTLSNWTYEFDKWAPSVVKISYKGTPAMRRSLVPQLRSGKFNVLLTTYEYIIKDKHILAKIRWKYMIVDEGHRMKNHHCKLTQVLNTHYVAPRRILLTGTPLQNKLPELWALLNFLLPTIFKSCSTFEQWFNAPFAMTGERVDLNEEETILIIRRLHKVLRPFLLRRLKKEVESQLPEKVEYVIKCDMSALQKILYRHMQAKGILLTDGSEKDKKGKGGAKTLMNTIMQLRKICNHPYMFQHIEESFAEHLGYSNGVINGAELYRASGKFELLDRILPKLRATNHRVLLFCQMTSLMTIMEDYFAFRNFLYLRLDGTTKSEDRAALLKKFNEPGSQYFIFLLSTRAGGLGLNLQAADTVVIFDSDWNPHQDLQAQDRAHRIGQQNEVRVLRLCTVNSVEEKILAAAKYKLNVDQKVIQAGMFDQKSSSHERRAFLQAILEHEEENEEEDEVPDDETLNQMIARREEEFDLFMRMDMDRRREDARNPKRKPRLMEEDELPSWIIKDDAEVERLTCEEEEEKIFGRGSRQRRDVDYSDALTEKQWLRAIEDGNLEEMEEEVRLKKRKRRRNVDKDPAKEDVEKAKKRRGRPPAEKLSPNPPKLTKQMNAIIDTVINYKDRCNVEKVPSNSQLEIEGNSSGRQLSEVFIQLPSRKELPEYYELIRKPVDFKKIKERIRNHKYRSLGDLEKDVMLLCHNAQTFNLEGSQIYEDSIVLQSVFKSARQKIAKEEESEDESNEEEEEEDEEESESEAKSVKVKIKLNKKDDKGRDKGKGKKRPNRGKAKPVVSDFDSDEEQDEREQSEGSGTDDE

In the case of `Cc1ncsc1-c1ccc([C@H](C)NC(=O)[C@@H]2C[C@@H](O)CN2C(=O)[C@@H](c2cc(OCCN3CCN(c4cc5cc(-c6ccccc6O)nnc5[nH]4)CC3)no2)C(C)C)cc1` (racemic) [Compound 235, (2S,4R)-4-hydroxy-1-((R)-2-(3-(2-(4-(3-(2-hydroxyphenyl)-7H-pyrrolo[2,3-c]pyridazin-6-yl)piperazin-1-yl)ethoxy)isoxazol-5-yl)-3-methylbutanoyl)-N-((S)-1-(4-(4-methylthiazol-5-yl)phenyl)ethyl)pyrrolidine-2-carboxamide], in assay [1], the “BRM HiBit Degradation Maximum (%)” value is “A (“A” indicates maximum degradation ≥ 75%)” and the DC50 is more than 10 nM. In assay [2], the Dmax was more than 75% and the DC50 is more than 10 nM.
Consider `Cc1ncsc1-c1ccc([C@H](C)NC(=O)[C@@H]2C[C@@H](O)CN2C(=O)[C@@H](c2cc(OCCN3CC4(CC(c5c[nH]c6nnc(-c7ccccc7O)cc56)C4)C3)no2)C(C)C)cc1` (racemic) [Compound 304, (2S,4R)-4-hydroxy-1-((R)-2-(3-(2-(6-(3-(2-hydroxyphenyl)-7H-pyrrolo[2,3-c]pyridazin-5-yl)-2-azaspiro[3.3]heptan-2-yl)ethoxy)isoxazol-5-yl)-3-methylbutanoyl)-N-((S)-1-(4-(4-methylthiazol-5-yl)phenyl)ethyl)pyrrolidine-2-carboxamide], for which, in assay [1], the “BRM HiBit Degradation Maximum (%)” value is given as “A (“A” indicates maximum degradation ≥ 75%)” and the DC50 was more than 10 nM. In assay [2], the Dmax is more than 75% and the DC50 is more than 100 nM.
The corresponding values for `Cc1ncsc1-c1ccc([C@H](C)NC(=O)[C@@H]2C[C@@H](O)CN2C(=O)[C@@H](c2cc(OCCN3CC[C@H](c4[nH]c5nnc(-c6ccccc6O)cc5c4C)C3)no2)C(C)C)cc1` (racemic) [Compound 258, (2S,4R)-4-hydroxy-1-((R)-2-(3-(2-((S)-3-(3-(2-hydroxyphenyl)-5-methyl-7H-pyrrolo[2,3-c]pyridazin-6-yl)pyrrolidin-1-yl)ethoxy)isoxazol-5-yl)-3-methylbutanoyl)-N-((S)-1-(4-(4-methylthiazol-5-yl)phenyl)ethyl)pyrrolidine-2-carboxamide] are “A (“A” indicates maximum degradation ≥ 75%)”, less than 10 nM, more than 75% and more than 10 nM.
For the molecule `Cc1ncsc1-c1ccc([C@H](C)NC(=O)[C@@H]2C[C@@H](O)CN2C(=O)[C@H](c2cc(CCCN3CC(c4cc5cc(-c6ccccc6O)nnc5[nH]4)C3)no2)C(C)C)cc1` (single isomer, unassigned) [Compound 202], in assay [1], the “BRM HiBit Degradation Maximum (%)” value was “C (“C” indicates maximum degradation < 50%)”. The Dmax in assay [2] was less than 50%.
`Cc1ncsc1-c1ccc([C@H](C)NC(=O)[C@@H]2C[C@@H](O)CN2C(=O)[C@@H](c2cc(OCCN3CC(CCCc4cc5cc(-c6ccccc6O)nnc5[nH]4)C3)no2)C(C)C)cc1` (racemic) [Compound 243, (2S,4R)-4-hydroxy-1-[(2R)-2-{3-[2-(3-{3-[3-(2-hydroxyphenyl)-7H-pyrrolo[2,3-c]pyridazin-6-yl]propyl}azetidin-1-yl)ethoxy]-1,2-oxazol-5-yl}-3-methylbutanoyl]-N-[(1S)-1-[4-(4-methyl-1,3-thiazol-5-yl)phenyl]ethyl]pyrrolidine-2-carboxamide]: in assay [1], the “BRM HiBit Degradation Maximum (%)” value was “A (“A” indicates maximum degradation ≥ 75%)” and the DC50 is more than 100 nM. In addition, in assay [2], the Dmax was more than 50% and the DC50 was more than 1000 nM.
As for `Cc1ncsc1-c1ccc(CNC(=O)[C@@H]2C[C@@H](O)CN2C(=O)[C@@H](NC(=O)CCCCCNCCC(=O)N2CC(c3cc4cc(-c5ccccc5O)nnc4[nH]3)C2)C(C)(C)C)cc1` (racemic) [Compound 55, (2S,4R)-4-hydroxy-1-((S)-2-(6-((3-(3-(3-(2-hydroxyphenyl)-7H-pyrrolo[2,3-c]pyridazin-6-yl)azetidin-1-yl)-3-oxopropyl)amino)hexanamido)-3,3-dimethylbutanoyl)-N-(4-(4-methylthiazol-5-yl)benzyl)pyrrolidine-2-carboxamide], in assay [1], the “BRM HiBit Degradation Maximum (%)” value was “C (“C” indicates maximum degradation < 50%)”. Besides, the Dmax in assay [2] is less than 50%.
Regarding `Cc1ncsc1-c1ccc([C@H](C)NC(=O)[C@@H]2C[C@@H](O)CN2C(=O)[C@@H](c2cc(OCCN3C[C@@H]4[C@H](C3)[C@H]4c3[nH]c4nnc(-c5cc(F)cc(F)c5O)cc4c3C)no2)C(C)C)cc1` (racemic) [Compound 125, (2S,4R)-1-((R)-2-(3-(2-((1R,5S,6R)-6-(3-(3,5-difluoro-2-hydroxyphenyl)-5-methyl-7H-pyrrolo[2,3-c]pyridazin-6-yl)-3-azabicyclo[3.1.0]hexan-3-yl)ethoxy)isoxazol-5-yl)-3-methylbutanoyl)-4-hydroxy-N-((S)-1-(4-(4-methylthiazol-5-yl)phenyl)ethyl)pyrrolidine-2-carboxamide], in assay [1], the “BRM HiBit Degradation Maximum (%)” value is “A (“A” indicates maximum degradation ≥ 75%)” and the DC50 is more than 10 nM. Besides, in assay [2], the Dmax is less than 50%.
For `Cc1ncsc1-c1ccc(CNC(=O)[C@@H]2C[C@@H](O)CN2C(=O)[C@@H](NC(=O)CCCC(=O)N[C@H]2CCc3[nH]c4nnc(-c5ccccc5O)cc4c3C2)C(C)(C)C)cc1` (single isomer, unassigned) [Compound 184], in that order: “B (“B” indicates maximum degradation ≥ 50%)”, more than 1000 nM and less than 50%.
For `Cc1ncsc1-c1ccc([C@H](C)NC(=O)[C@@H]2C[C@@H](O)CN2C(=O)[C@@H](c2cc(OCCN3CC[C@@H](c4c[nH]c5nnc(-c6ccccc6O)cc45)C3)no2)C(C)C)cc1` (racemic) [Compound 262, (2S,4R)-4-hydroxy-1-((R)-2-(3-(2-((S)-3-(3-(2-hydroxyphenyl)-7H-pyrrolo[2,3-c]pyridazin-5-yl)pyrrolidin-1-yl)ethoxy)isoxazol-5-yl)-3-methylbutanoyl)-N-((S)-1-(4-(4-methylthiazol-5-yl)phenyl)ethyl)pyrrolidine-2-carboxamide], in that order: “B (“B” indicates maximum degradation ≥ 50%)”, more than 10 nM and less than 50%.
In the case of `Cc1ncsc1-c1ccc([C@H](C)NC(=O)[C@@H]2C[C@@H](O)CN2C(=O)[C@@H](c2cc(OCCN3[C@@H]4CC[C@H]3CN(c3cc5cc(-c6ccccc6O)nnc5[nH]3)C4)no2)C(C)C)cc1` (racemic) [Compound 245, (2S,4R)-4-hydroxy-1-((2R)-2-(3-(2-(3-(3-(2-hydroxyphenyl)-7H-pyrrolo[2,3-c]pyridazin-6-yl)-3,8-diazabicyclo[3.2.1]octan-8-yl)ethoxy)isoxazol-5-yl)-3-methylbutanoyl)-N-((S)-1-(4-(4-methylthiazol-5-yl)phenyl)ethyl)pyrrolidine-2-carboxamide], in assay [1], the “BRM HiBit Degradation Maximum (%)” value is on record as “A (“A” indicates maximum degradation ≥ 75%)” and the DC50 is more than 10 nM. For the same molecule, in assay [2], the Dmax is more than 75% and the DC50 was more than 100 nM.
